DC50 data for 17 compounds are collected here from US11530222B2, “Substituted pyrrolopyrimidine and pyrazolopyrimidine as Bruton's tyrosine kinase (BTK) degraders” (ACCUTAR BIOTECHNOLOGY INC., priority 2021, dated 2022).

This assay addresses T1, BTK (Homo sapiens, UniProt Q06187).
T1 construct: BTK Degradative Activity of Exemplary Compounds of the Present Disclosure in a RAMOS Cell Line; host or cells: RAMOS
Description: BTK degradative activity in a RAMOS cell line (Western blot). In kind it is cell-based. Particulars: 6 hours after administration, read-out: RAMOS BTK Degradation DC50. As for the experimental part:
RAMOS (ATCC) cells were plated in 24-well plates at 8×10^5 cells/well in the RPMI growth medium containing 10% heat-inactivated FBS and 1× Penicillin Streptomycin, and then incubated at 37° C. overnight. The following day, the test compound was administered to the cells by using 1000× compound stock solution prepared in DMSO at various concentrations. After administration of the compound, the cells were then incubated at 37° C. for 6 hours.
Upon completion, the cells were collected by centrifugation and lysed in Laemmli sample buffer (1×; VWR International). Proteins in cell lysate were separated by SDS-PAGE and transferred to Odyssey nitrocellulose membranes (Licor) with Iblot® dry blotting transfer system (ThermoFisher). Nonspecific binding was blocked by incubating membranes with Intercept Blocking Buffer (Licor) for 1 hour at room temperature with gentle shaking. The membranes were then incubated overnight at 4° C. with primary antibodies anti-BTK (Cell signaling, cat. #8547) and anti-GAPDH (Cell signaling, cat. #5179) diluted in Intercept Blocking Buffer containing 0.1% Tween 20. After washing 3 times with TBS-T, the membranes were incubated with IRDye® 800CW goat anti-mouse IgG (1:20,000, Licor) or IRDye® 800CW goat anti-rabbit IgG (1:20,000, Licor) for 1 hour. After TBS-T washes, membranes were rinsed in TBS and scanned on Odyssey® CLx Imaging System (Licor). The bands were quantified using Image Studio™ Software (Licor).
Table 3 summarizes the BTK degradative activity of exemplary compounds of the present disclosure in a RAMOS cell line 6 hours after administration. The DC50 values (i.e., the concentration of test compound at which 50% of the target protein is degraded) were calculated. A designation of “A” corresponds to a DC50 value less than 10 nM. A designation of “B” corresponds to a DC50 value greater than or equal to 10 nM and less than 100 nM. A designation of “C” corresponds to a DC50 value greater than or equal to 100 nM.
In general terms: In western blotting, separated proteins are transferred to a membrane and probed.

The DC50 is the concentration giving 50% degradation.

T1 sequence (Q06187 whole entry): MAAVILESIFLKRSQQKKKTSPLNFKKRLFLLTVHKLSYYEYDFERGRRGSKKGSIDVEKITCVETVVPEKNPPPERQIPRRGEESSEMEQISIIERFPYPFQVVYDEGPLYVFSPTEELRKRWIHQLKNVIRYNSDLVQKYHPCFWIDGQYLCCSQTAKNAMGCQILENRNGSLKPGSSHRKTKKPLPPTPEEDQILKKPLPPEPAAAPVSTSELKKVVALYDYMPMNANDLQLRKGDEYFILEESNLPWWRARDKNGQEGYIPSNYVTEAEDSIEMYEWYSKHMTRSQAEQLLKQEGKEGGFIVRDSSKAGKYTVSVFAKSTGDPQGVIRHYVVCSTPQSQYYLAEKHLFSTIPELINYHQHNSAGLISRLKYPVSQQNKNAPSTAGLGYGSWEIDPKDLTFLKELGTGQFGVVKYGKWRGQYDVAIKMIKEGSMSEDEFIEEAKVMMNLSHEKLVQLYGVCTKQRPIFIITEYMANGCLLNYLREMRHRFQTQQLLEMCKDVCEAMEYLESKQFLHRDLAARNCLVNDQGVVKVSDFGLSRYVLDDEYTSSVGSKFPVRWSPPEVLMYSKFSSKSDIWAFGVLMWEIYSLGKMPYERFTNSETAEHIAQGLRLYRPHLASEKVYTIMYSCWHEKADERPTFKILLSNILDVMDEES

For the compound `O=C1CCC(N2C(=O)c3ccc(OCCN4CCN(c5ccc(C(=O)N6CCC[C@@H](Nc7ncnc8[nH]cc(C(=O)c9ccc(Oc%10ccccc%10)cc9Cl)c78)C6)cn5)CC4)cc3C2=O)C(=O)N1` (stereo partly drawn) [Compound 5, 5-(2-(4-(5-((R)-3-((5-(2-chloro-4-phenoxybenzoyl)-7H-pyrrolo[2,3-d]pyrimidin-4-yl)amino)piperidine-1-carbonyl)pyridin-2-yl)piperazin-1-yl)ethoxy)-2-(2,6-dioxopiperidin-3-yl)isoindoline-1,3-dione], the DC50 was at least 0.1 µM.
The figure for `O=C1CCC(N2C(=O)c3ccc(N4CCN(CCCCCC(=O)N5CCC(Nc6ncnc7[nH]cc(C(=O)c8ccc(Oc9ccccc9)cc8Cl)c67)CC5)CC4)cc3C2=O)C(=O)N1` (centres unmarked) [Compound 28, 5-(4-(6-(4-((5-(2-chloro-4-phenoxybenzoyl)-7H-pyrrolo[2,3-d]pyrimidin-4-yl)amino)piperidin-1-yl)-6-oxohexyl)piperazin-1-yl)-2-(2,6-dioxopiperidin-3-yl)isoindoline-1,3-dione] is 0.01 to 0.1 µM.
The figure for `COc1ccc(C(=O)N2CCN(CCCCCCC(=O)N3CCC(Nc4ncnc5[nH]cc(C(=O)c6ccc(Oc7ccccc7)cc6Cl)c45)CC3)CC2)cc1N1CCC(=O)NC1=O` [Compound 78, 1-(5-(4-(7-(4-((5-(2-chloro-4-phenoxybenzoyl)-7H-pyrrolo[2,3-d]pyrimidin-4-yl)amino)piperidin-1-yl)-7-oxoheptyl)piperazine-1-carbonyl)-2-methoxyphenyl)dihydropyrimidine-2,4(1H,3H)-dione] is under 0.01 µM; for `O=C1CCC(N2C(=O)c3ccc(N4CCN(C5CC(CC(=O)N6CCC(Nc7ncnc8[nH]cc(C(=O)c9ccc(Oc%10ccccc%10)cc9Cl)c78)CC6)C5)CC4)cc3C2=O)C(=O)N1` (centres unmarked) [Compound 37, 5-(4-(3-(2-(4-((5-(2-chloro-4-phenoxybenzoyl)-7H-pyrrolo[2,3-d]pyrimidin-4-yl)amino)piperidin-1-yl)-2-oxoethyl)cyclobutyl)piperazin-1-yl)-2-(2,6-dioxopiperidin-3-yl)isoindoline-1,3-dione] it is 0.01 to 0.1 µM.
The figure for `O=C1CC[C@H](N2Cc3cc(N4CCN(CC5CCN(c6ccc(Nc7ncnc8[nH]cc(C(=O)c9ccc(Oc%10ccccc%10)cc9Cl)c78)cc6F)CC5)CC4)ccc3C2=O)C(=O)N1` [Compound 46, (S)-3-(5-(4-((1-(4-((5-(2-chloro-4-phenoxybenzoyl)-7H-pyrrolo[2,3-d]pyrimidin-4-yl)amino)-2-fluorophenyl)piperidin-4-yl)methyl)piperazin-1-yl)-1-oxoisoindolin-2-yl)piperidine-2,6-dione] is at least 0.1 µM; for `COc1ccc(C(=O)N2CCCN(CC3CCN(c4ccc(Nc5ncnc6[nH]cc(C(=O)c7ccc(Oc8ccccc8)cc7Cl)c56)cc4F)CC3)CC2)cc1N1CCC(=O)NC1=O` [Compound 75, 1-(5-(4-((1-(4-((5-(2-chloro-4-phenoxybenzoyl)-7H-pyrrolo[2,3-d]pyrimidin-4-yl)amino)-2-fluorophenyl)piperidin-4-yl)methyl)-1,4-diazepane-1-carbonyl)-2-methoxyphenyl)dihydropyrimidine-2,4(1H,3H)-dione] it is 0.01 to 0.1 µM.
In the case of `O=C1CCC(N2Cc3c(C#CCCCCCC(=O)N4CCC(Nc5ncnc6[nH]cc(C(=O)c7ccc(Oc8ccccc8)cc7Cl)c56)CC4)cccc3C2=O)C(=O)N1` (centres unmarked) [Compound 40, 3-(4-(8-(4-((5-(2-chloro-4-phenoxybenzoyl)-7H-pyrrolo[2,3-d]pyrimidin-4-yl)amino)piperidin-1-yl)-8-oxooct-1-yn-1-yl)-1-oxoisoindolin-2-yl)piperidine-2,6-dione], the DC50 was at least 0.1 µM.
As for `O=C1CC[C@H](N2Cc3cc(N4CCN(CCCCC(=O)N5CCC(Nc6ncnc7[nH]cc(C(=O)c8ccc(Oc9ccccc9)cc8Cl)c67)CC5)CC4)ccc3C2=O)C(=O)N1` [Compound 25, (S)-3-(5-(4-(5-(4-((5-(2-chloro-4-phenoxybenzoyl)-7H-pyrrolo[2,3-d]pyrimidin-4-yl)amino)piperidin-1-yl)-5-oxopentyl)piperazin-1-yl)-1-oxoisoindolin-2-yl)piperidine-2,6-dione], the DC50 is under 0.01 µM.
As to `O=C1CCC(N2C(=O)c3ccc(N4CCN(C5CC(CC(=O)N6CCC[C@@H](Nc7ncnc8[nH]cc(C(=O)c9ccc(Oc%10ccccc%10)cc9Cl)c78)C6)C5)CC4)cc3C2=O)C(=O)N1` (stereo partly drawn) [Compound 43, 5-(4-(3-(2-((R)-3-((5-(2-chloro-4-phenoxybenzoyl)-7H-pyrrolo[2,3-d]pyrimidin-4-yl)amino)piperidin-1-yl)-2-oxoethyl)cyclobutyl)piperazin-1-yl)-2-(2,6-dioxopiperidin-3-yl)isoindoline-1,3-dione], the DC50 is under 0.01 µM.
The figure for `COc1ccc(C(=O)N2CCN(CC3CCN(c4ccc(Nc5ncnc6[nH]cc(C(=O)c7ccc(Oc8ccccc8)cc7Cl)c56)cc4F)CC3)CC2)cc1N1CCC(=O)NC1=O` [Compound 74, 1-(5-(4-((1-(4-((5-(2-chloro-4-phenoxybenzoyl)-7H-pyrrolo[2,3-d]pyrimidin-4-yl)amino)-2-fluorophenyl)piperidin-4-yl)methyl)piperazine-1-carbonyl)-2-methoxyphenyl)dihydropyrimidine-2,4(1H,3H)-dione] is at least 0.1 µM; for `O=C1CCC(N2C(=O)c3ccc(N4CCN(CC5CCN(c6ccc(C(=O)N7CCC[C@@H](Nc8ncnc9[nH]cc(C(=O)c%10ccc(Oc%11ccccc%11)cc%10Cl)c89)C7)cn6)CC5)CC4)cc3C2=O)C(=O)N1` (stereo partly drawn) [Compound 10, 5-(4-((1-(5-((R)-3-((5-(2-chloro-4-phenoxybenzoyl)-7H-pyrrolo[2,3-d]pyrimidin-4-yl)amino)piperidine-1-carbonyl)pyridin-2-yl)piperidin-4-yl)methyl)piperazin-1-yl)-2-(2,6-dioxopiperidin-3-yl)isoindoline-1,3-dione] it is at least 0.1 µM.
As to `O=C1CCC(N2C(=O)c3ccc(OCCCN4CCN(c5ccc(C(=O)N6CCC[C@@H](Nc7ncnc8[nH]cc(C(=O)c9ccc(Oc%10ccccc%10)cc9Cl)c78)C6)cn5)CC4)cc3C2=O)C(=O)N1` (stereo partly drawn) [Compound 4, 5-(3-(4-(5-((R)-3-((5-(2-chloro-4-phenoxybenzoyl)-7H-pyrrolo [2,3-d]pyrimidin-4-yl)amino)piperidine-1-carbonyl)pyridin-2-yl)piperazin-1-yl)propoxy)-2-(2,6-dioxopiperidin-3-yl)isoindoline-1,3-dione], the DC50 was at least 0.1 µM.
The figure for `O=C1CC[C@H](N2Cc3cc(N4CCN(CCCCCCC(=O)N5CCC(Nc6ncnc7[nH]cc(C(=O)c8ccc(Oc9ccccc9)cc8Cl)c67)CC5)CC4)ccc3C2=O)C(=O)N1` [Compound 21, (S)-3-(5-(4-(7-(4-((5-(2-chloro-4-phenoxybenzoyl)-7H-pyrrolo[2,3-d]pyrimidin-4-yl)amino)piperidin-1-yl)-7-oxoheptyl)piperazin-1-yl)-1-oxoisoindolin-2-yl)piperidine-2,6-dione] is 0.01 to 0.1 µM; for `O=C1CCC(N2C(=O)c3ccc(N4CCN(CCCCN5CCC(Nc6ncnc7[nH]cc(C(=O)c8ccc(Oc9ccccc9)cc8Cl)c67)CC5)CC4)cc3C2=O)C(=O)N1` (centres unmarked) [Compound 27, 5-(4-(4-(4-((5-(2-chloro-4-phenoxybenzoyl)-7H-pyrrolo[2,3-d]pyrimidin-4-yl)amino)piperidin-1-yl)butyl)piperazin-1-yl)-2-(2,6-dioxopiperidin-3-yl)isoindoline-1,3-dione] it is 0.01 to 0.1 µM; for `O=C1CCC(N2Cc3c(C#CCCCCC(=O)N4CCC(Nc5ncnc6[nH]cc(C(=O)c7ccc(Oc8ccccc8)cc7Cl)c56)CC4)cccc3C2=O)C(=O)N1` (centres unmarked) [Compound 41, 3-(4-(7-(4-((5-(2-chloro-4-phenoxybenzoyl)-7H-pyrrolo[2,3-d]pyrimidin-4-yl)amino)piperidin-1-yl)-7-oxohept-1-yn-1-yl)-1-oxoisoindolin-2-yl)piperidine-2,6-dione] it is at least 0.1 µM.
The figure for `O=C1CCC(N2C(=O)c3ccc(N4CCN(CCC5CCN(c6ccc(Nc7ncnc8[nH]cc(C(=O)c9ccc(Oc%10ccccc%10)cc9Cl)c78)cc6F)CC5)CC4)cc3C2=O)C(=O)N1` (centres unmarked) [Compound 44, 5-(4-(2-(1-(4-((5-(2-chloro-4-phenoxybenzoyl)-7H-pyrrolo[2,3-d]pyrimidin-4-yl)amino)-2-fluorophenyl)piperidin-4-yl)ethyl)piperazin-1-yl)-2-(2,6-dioxopiperidin-3-yl)isoindoline-1,3-dione] is at least 0.1 µM; for `O=C1CC[C@H](N2Cc3cc(N4CCN(CCCCCC(=O)N5CCC[C@@H](Nc6ncnc7[nH]cc(C(=O)c8ccc(Oc9ccccc9)cc8Cl)c67)C5)CC4)ccc3C2=O)C(=O)N1` [Compound 16, (S)-3-(5-(4-(6-((R)-3-((5-(2-chloro-4-phenoxybenzoyl)-7H-pyrrolo[2,3-d]pyrimidin-4-yl)amino)piperidin-1-yl)-6-oxohexyl)piperazin-1-yl)-1-oxoisoindolin-2-yl)piperidine-2,6-dione] it is 0.01 to 0.1 µM.
